Reference: patent publication US10370343B2, “[6,6] Fused bicyclic HDAC8 inhibitors” (FORMA Therapeutics, Inc., priority 2015, dated 2019)

These compounds were tested against T1, Recombinant N-terminal GST tag full-length human HDAC8 (Homo sapiens, UniProt Q9BY41) (assay: HDAC8 probe binding assay, time resolved fluorescence (TRF) format). Settings: compounds grouped by IC50 range (Table 2).
T1 construct: Recombinant N-terminal GST tag full-length human HDAC8; purchased SignalChem H90-30G-1000; host or cells: baculovirus in Sf9 insect cells
T1 sequence (Q9BY41 1-377): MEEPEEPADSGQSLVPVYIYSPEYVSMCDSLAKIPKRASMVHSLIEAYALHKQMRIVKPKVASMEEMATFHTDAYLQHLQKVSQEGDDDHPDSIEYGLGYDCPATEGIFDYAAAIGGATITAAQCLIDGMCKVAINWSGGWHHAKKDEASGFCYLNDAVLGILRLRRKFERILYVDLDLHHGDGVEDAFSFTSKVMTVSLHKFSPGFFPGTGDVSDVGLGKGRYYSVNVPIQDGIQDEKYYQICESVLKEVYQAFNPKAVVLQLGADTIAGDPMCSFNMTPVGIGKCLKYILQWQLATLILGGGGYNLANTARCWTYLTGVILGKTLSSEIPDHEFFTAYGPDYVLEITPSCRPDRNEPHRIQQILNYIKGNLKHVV
Protocol: The HDAC8 probe binding assay was performed using a time resolved fluorescence (TRF) assay format. Recombinant N-terminal GST tag full-length human HDAC8 was expressed and purified from baculovirus in Sf9 insect cells (SignalChem, #[…]-1000). […] Plates were incubated for 16 hours at room temperature before time resolved fluorescence was read on the Envision (Excitation at 340 nm, and Emission at 485 nm and 535 nm, Perkin Elmer). Data from HDAC8 Assays were reported as percent inhibition (inh) compared with control wells based on the following equation: % inh=1-((FLU-AveLow)/(AveHigh-AveLow)) where FLU=measured time resolved fluorescence. AveLow=average time resolved fluorescence of no enzyme control (n=32). AveHigh=average time resolved fluorescence of DMSO control (n=32). IC50 values were determined by curve fitting of the standard 4 parameter logistic fitting algorithm included in the Activity Base software package: IDBS XE Designer Model205. Data is fitted using the Levenburg Marquardt algorithm. Ranges of IC50 values for compounds of the invention are disclosed in Table 2: Table 2. provides the compounds arranged according to […] determined in a time resolved fluorescence (TRF) assay. The compounds are separated into four groups: […]

Compound | IC50
O=C(NO)c1ccc2c(c1)N(CC1COc3ccccc3O1)C(=O)CO2 (racemic) [Compound I-185, (+/−)-4-((2,3-dihydrobenzo[b][1,4]dioxin-2-yl)methyl)-N-hydroxy-3-oxo-3,4-dihydro-2H-benzo[b][1,4]oxazine-6-carboxamide] | ≤ 0.025 µM
CC1(C)Oc2ccc(C(=O)NO)cc2N(Cc2cc(-c3ccccc3)on2)C1=O [Compound I-320, N-hydroxy-2,2-dimethyl-3-oxo-4-((5-phenylisoxazol-3-yl)methyl)-3,4-dihydro-2H-benzo[b][1,4]oxazine-6-carboxamide] | ≤ 0.025 µM
O=C(NO)c1ccc2c(c1)N(Cc1nc3ccc(C(F)(F)F)nc3s1)C(=O)CO2 [Compound I-212, N-hydroxy-3-oxo-4-((5-(trifluoromethyl)thiazolo [5,4-b]pyridin-2-yl)methyl)-3,4-dihydro-2H-benzo[b][1,4]oxazine-6-carboxamide] | 0.025 to 0.1 µM
O=C(NO)c1ccc2c(c1)N(Cc1ccc3ccccc3n1)C(=O)CO2 [Compound I-232, N-hydroxy-3-oxo-4-(quinolin-2-ylmethyl)-3,4-dihydro-2H-benzo[b][1,4]oxazine-6-carboxamide] | ≤ 0.025 µM
CC1(C)Oc2ccc(C(=O)NO)cc2N(Cc2nc3ccccc3s2)C1=O [Compound I-295, 4-(benzo[d]thiazol-2-ylmethyl)-N-hydroxy-2,2-dimethyl-3-oxo-3,4-dihydro-2H-benzo[b][1,4]oxazine-6-carboxamide] | 0.025 to 0.1 µM
O=C(NO)c1ccc2c(c1)N(Cc1nc(-c3ccccc3)co1)C(=O)CO2 [Compound I-202, N-hydroxy-3-oxo-4-((4-phenyloxazol-2-yl)methyl)-3,4-dihydro-2H-benzo[b][1,4]oxazine-6-carboxamide] | ≤ 0.025 µM
CC1(C)Oc2ccc(C(=O)NO)cc2N(C/C=C/c2ccccc2)C1=O [Compound I-318, 4-cinnamyl-N-hydroxy-2,2-dimethyl-3-oxo-3,4-dihydro-2H-benzo[b][1,4]oxazine-6-carboxamide] | ≤ 0.025 µM
O=C(NO)c1ccc2c(c1)N(Cc1cnc(-c3ccccc3)o1)C(=O)CO2 [Compound I-178, N-hydroxy-3-oxo-4-((2-phenyloxazol-5-yl)methyl)-3,4-dihydro-2H-benzo[b][1,4]oxazine-6-carboxamide] | ≤ 0.025 µM
Cc1cccc2nc(CN3C(=O)COc4ccc(C(=O)NO)cc43)cc(=O)n12 [Compound I-327, N-hydroxy-4-((6-methyl-4-oxo-4H-pyrido[1,2-a]pyrimidin-2-yl)methyl)-3-oxo-3,4-dihydro-2H-benzo[b][1,4]oxazine-6-carboxamide] | 0.025 to 0.1 µM
O=C(NO)c1ccc2c(c1)N(Cc1ccc(C(=O)N3CCOCC3)cc1)C(=O)CO2 [Compound I-190, N-hydroxy-4-(4-(morpholine-4-carbonyl)benzyl)-3-oxo-3,4-dihydro-2H-benzo[b][1,4]oxazine-6-carboxamide] | 0.025 to 0.1 µM
O=C(NO)c1ccc2c(c1)N(CC1CCc3ccccc3O1)C(=O)CO2 (racemic) [Compound I-184, (+/−)-4-(chroman-2-ylmethyl)-N-hydroxy-3-oxo-3,4-dihydro-2H-benzo[b][1,4]oxazine-6-carboxamide] | 0.025 to 0.1 µM
CC1(C)Oc2ccc(C(=O)NO)cc2N(Cc2ccc(C(F)(F)F)cc2F)C1=O [Compound I-321, 4-(2-fluoro-4-(trifluoromethyl)benzyl)-N-hydroxy-2,2-dimethyl-3-oxo-3,4-dihydro-2H-benzo[b][1,4]oxazine-6-carboxamide] | ≤ 0.025 µM
CNC(=O)C1CN(Cc2ccc(OC)cc2)c2cc(C(=O)NO)ccc2O1 (centres unmarked) [Compound I-170, N^6-hydroxy-4-(4-methoxybenzyl)-N^2-methyl-3,4-dihydro-2H, benzo[b][1,4]oxazine-2,6-dicarboxamide] | 0.025 to 0.1 µM
CC1(C)Oc2ccc(C(=O)NO)cc2N(Cc2nc(-c3ccccc3)sc2Cc2ccccc2)C1=O [Compound I-309, 4-((5-benzyl-2-phenylthiazol-4-yl)methyl)-N-hydroxy-2,2-dimethyl-3-oxo-3,4-dihydro-2H-benzo[b][1,4]oxazine-6-carboxamide] | > 1 µM

Other lines, results leading:

IC50 | Compound
≤ 0.025 µM | O=C(NO)c1ccc2c(c1)N(Cc1cc(F)ccc1Cl)C(=O)CO2 [Compound I-352, 4-(2-chloro-5-fluorobenzyl)-N-hydroxy-3-oxo-3,4-dihydro-2H-benzo[b][1,4]oxazine-6-carboxamide]
≤ 0.025 µM | Cn1cc2ccc(CN3C(=O)COc4ccc(C(=O)NO)cc43)cc2n1 [Compound I-240, N-hydroxy-4-((2-methyl-2H-indazol-6-yl)methyl)-3-oxo-3,4-dihydro-2H-benzo[b][1,4]oxazine-6-carboxamide]
≤ 0.025 µM | O=C(NO)c1ccc2c(c1)N(Cc1nc3cccnc3s1)C(=O)CO2 [Compound I-359, N-hydroxy-3-oxo-4-(thiazolo[5,4-b]pyridin-2-ylmethyl)-3,4-dihydro-2H-benzo[b][1,4]oxazine-6-carboxamide]
≤ 0.025 µM | O=C(NO)c1ccc2c(c1)N(Cc1cc(-c3ccccc3)[nH]n1)C(=O)CO2 [Compound I-204, N-hydroxy-3-oxo-4-[(5-phenyl-1H-pyrazol-3-yl)methyl]-3,4-dihydro-2H-1,4-benzoxazine-6-carboxamide]
≤ 0.025 µM | O=C(NO)c1ccc2c(c1)N(Cc1ccc(Cl)cc1F)C(=O)CO2 [Compound I-344, 4-(4-chloro-2-fluorobenzyl)-N-hydroxy-3-oxo-3,4-dihydro-2H-benzo[b][1,4]oxazine-6-carboxamide]
≤ 0.025 µM | O=C(NO)c1ccc2c(c1)N(Cc1ccc3ccccc3c1)C(=O)CO2 [Compound I-323, N-hydroxy-4-(naphthalen-2-ylmethyl)-3-oxo-3,4-dihydro-2H-benzo[b][1,4]oxazine-6-carboxamide]
≤ 0.025 µM | O=C(NO)c1ccc2c(c1)N(Cc1cc(F)cc(Cl)c1)C(=O)CO2 [Compound I-343, 4-(3-chloro-5-fluorobenzyl)-N-hydroxy-3-oxo-3,4-dihydro-2H-benzo[b][1,4]oxazine-6-carboxamide]
0.025 to 0.1 µM | COc1cc(F)cc(CN2C(=O)COc3ccc(C(=O)NO)cc32)c1 [Compound I-342, 4-(3-fluoro-5-methoxybenzyl)-N-hydroxy-3-oxo-3,4-dihydro-2H-benzo[b][1,4]oxazine-6-carboxamide]
≤ 0.025 µM | Cc1nn(C)c2ncc(CN3C(=O)COc4ccc(C(=O)NO)cc43)cc12 [Compound I-325, 4-((1,3-dimethyl-1H-pyrazolo[3,4-b]pyridin-5-yl)methyl)-N-hydroxy-3-oxo-3,4-dihydro-2H-benzo[b][1,4]oxazine-6-carboxamide]
≤ 0.025 µM | COc1ccc(CN2C(=O)COc3ccc(C(=O)NO)cc32)c(F)c1 [Compound I-341, 4-(2-fluoro-4-methoxybenzyl)-N-hydroxy-3-oxo-3,4-dihydro-2H-benzo[b][1,4]oxazine-6-carboxamide]
0.025 to 0.1 µM | O=C(NO)c1ccc2c(c1)N(Cc1cnn(C3CC3)c1)C(=O)CO2 [Compound I-206, 4-((1-cyclopropyl-1H-pyrazol-4-yl)methyl)-N-hydroxy-3-oxo-3,4-dihydro-2H-benzo[b][1,4]oxazine-6-carboxamide]
≤ 0.025 µM | O=C(NO)c1ccc2c(c1)N(Cc1cc3ccccc3cn1)C(=O)CO2 [Compound I-334, N-hydroxy-4-(isoquinolin-3-ylmethyl)-3-oxo-3,4-dihydro-2H-benzo[b][1,4]oxazine-6-carboxamide]
